# From BindingDB's records for patent US20250313563 (The Broad Institute, 2025)
# Values joined by “and” are separate entries in the source; they are usually repeats but may differ in a detail not shown here. Equal values may be shown once.
# Tests used:
# [1] = molecular target: Glycogen synthase kinase-3 alpha (Homo sapiens, UniProt P49840); experiment: TR-FRET Assay
# Method in brief: (§1)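 Kinase activity, measured after a 30-minute compound preincubation, was stopped with EDTA and quantified by TR-FRET using a Tb-labelled pSer641 antibody paired with streptavidin-d2.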
# [2] = molecular target: Glycogen synthase kinase-3 beta (Homo sapiens, UniProt P49841); experiment: TR-FRET Assay
# Method in brief: as §1
# Sequence of Glycogen synthase kinase-3 beta (P49841 whole entry): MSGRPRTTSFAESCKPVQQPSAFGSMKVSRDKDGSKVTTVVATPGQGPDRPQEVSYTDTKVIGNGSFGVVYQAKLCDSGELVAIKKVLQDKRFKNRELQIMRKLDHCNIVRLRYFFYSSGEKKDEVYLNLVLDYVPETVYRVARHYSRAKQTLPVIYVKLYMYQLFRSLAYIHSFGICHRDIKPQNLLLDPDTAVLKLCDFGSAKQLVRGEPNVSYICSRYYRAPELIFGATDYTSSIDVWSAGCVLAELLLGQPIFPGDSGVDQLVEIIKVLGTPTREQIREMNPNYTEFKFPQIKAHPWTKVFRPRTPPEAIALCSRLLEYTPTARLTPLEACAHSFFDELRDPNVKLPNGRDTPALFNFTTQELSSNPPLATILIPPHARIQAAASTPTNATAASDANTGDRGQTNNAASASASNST
# Sequence of Glycogen synthase kinase-3 alpha (P49840 whole entry): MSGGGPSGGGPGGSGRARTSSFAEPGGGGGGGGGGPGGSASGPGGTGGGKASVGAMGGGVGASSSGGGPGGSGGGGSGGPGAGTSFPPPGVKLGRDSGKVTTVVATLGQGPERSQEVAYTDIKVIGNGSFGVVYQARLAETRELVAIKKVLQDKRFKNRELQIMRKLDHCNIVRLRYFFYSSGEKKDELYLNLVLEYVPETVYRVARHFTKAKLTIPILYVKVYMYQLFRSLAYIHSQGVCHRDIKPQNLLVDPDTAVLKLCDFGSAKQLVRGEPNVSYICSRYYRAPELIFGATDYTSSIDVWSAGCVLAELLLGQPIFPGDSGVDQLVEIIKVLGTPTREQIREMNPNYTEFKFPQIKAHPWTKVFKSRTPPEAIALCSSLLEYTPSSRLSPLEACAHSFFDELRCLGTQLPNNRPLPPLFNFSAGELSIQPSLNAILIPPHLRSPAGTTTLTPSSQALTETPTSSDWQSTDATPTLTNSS
SMILES,IC50 [1],IC50 [2]
"CCC1(c2cccc(-c3ccncc3F)c2)C2=C(CC(C)(C)NC2=O)NC2N=NC(C(F)(F)F)=C21 (centres undefined) [US20250313563, Compound 947866]",< 100 nM,< 100 nM
"CC[C@@]1(c2cccc(-c3ccncc3)c2)C2=C(CC(C)(C)CC2=O)NC2N=NC(C)=C21 (some centres undefined) [US20250313563, Compound 913015]",< 100 nM,< 100 nM
"CC1(C)CC(=O)C2=C(C1)NC1N=NC=C1C21CCCN(CC(F)(F)F)CC1 (centres undefined) [US20250313563, Compound 889576]",100 to 1000 nM,100 to 1000 nM
"CC1(C)CC(=O)C2=C(C1)NC1=C(CN=N1)[C@]21COC2(CN(C(=O)C3CCCC3)C2)C1 [US20250313563, Compound 943958]",100 to 1000 nM,1000 to 5000 nM
"CC1(C)CC(=O)C2=C(C1)NC1=C(CN=N1)C21COC2(CN(C(=O)CC3CC3)C2)C1 (centres undefined) [US20250313563, Compound 947298]",< 100 nM,< 100 nM
"CC[C@]1(c2cccc(Br)c2)C2=C(C[C@H](C)CC2=O)NC2N=NC(C(F)(F)F)=C21 (some centres undefined) [US20250313563, Compound 828848]",< 100 nM,< 100 nM
"CCC1(c2cccc(-c3ccnc(C)c3)c2)C2=C(CC(C)(C)NC2=O)NC2N=NC(C(F)(F)F)=C21 (centres undefined) [US20250313563, Compound 947858]",< 100 nM,< 100 nM
"COc1ccccc1S(=O)(=O)N1CC2(C1)C1=C(N=NC1)NC1=C2C(=O)CC(C)(C)C1 [US20250313563, Compound 913261]",< 100 nM,< 100 nM
"CCC1(c2cccc(-c3ccncc3OC)c2)C2=CN=NC2NC2=C1C(=O)CC(C)(C)C2 (centres undefined) [US20250313563, Compound 932627]",< 100 nM,< 100 nM
"CC1(C)CC(=O)C2=C(C1)NC1=C(CN=N1)C21CCN(S(=O)(=O)c2cc(F)ccn2)CC1 [US20250313563, Compound 947262]",100 to 1000 nM,100 to 1000 nM
"CC[C@]1(c2cccc(N3CCOCC3)c2)C2=C(CC(C)(C)CC2=O)NC2N=NC(C(F)(F)F)=C21 (some centres undefined) [US20250313563, Compound 816885]",< 100 nM,< 100 nM
"CCC1(c2cccc(-c3cnn(C)c3)c2)C2=CN=NC2NC2=C1C(=O)NC(C)(C)C2 (centres undefined) [US20250313563, Compound 943912]",< 100 nM,1000 to 5000 nM
"CC[C@@]1(c2cccc(-c3ccncc3C)c2)C2=CN=NC2NC2=C1C(=O)CC(C)(C)C2 (some centres undefined) [US20250313563, Compound 913047]",< 100 nM,< 100 nM and 100 to 1000 nM
"C[C@H]1CCC[C@]12C1=CN=NC1NC1=C2C(=O)CC(C)(C)C1 (some centres undefined) [US20250313563, Compound 874320]",1000 to 5000 nM,1000 to 5000 nM
"CC[C@]1(c2cccc(C3CCC3)c2)C2=CN=NC2NC2=C1C(=O)CC(C)(C)C2 (some centres undefined) [US20250313563, Compound 949521]",< 100 nM and 100 to 1000 nM,< 100 nM and 1000 to 5000 nM
"CCC1(c2cccc(SC)c2)C2=CN=NC2NC2=C1C(=O)CC(C)(C)C2 (centres undefined) [US20250313563, Compound 810508]",< 100 nM,100 to 1000 nM
"CC(C)(C)CC1=C2C(N=N1)NC1=C(C(=O)CC(C)(C)C1)[C@@]21CCc2cc(F)ccc21 (some centres undefined) [US20250313563, Compound 782425]",100 to 1000 nM,100 to 1000 nM
"CCC1(c2cccc(C(F)(F)F)c2)C2=CN=NC2NC2=C1C(=O)N(c1ccc(C)cc1)CC2 (centres undefined) [US20250313563, Compound 948241]",< 100 nM,100 to 1000 nM
"Cc1ccc(S(=O)(=O)N2CCC3(CC2)C2=C(N=NC2)NC2=C3C(=O)CC(C)(C)C2)s1 [US20250313563, Compound 945672]",< 100 nM and 100 to 1000 nM,< 100 nM and 100 to 1000 nM
"CC[C@@]1(c2cccc(C(F)(F)F)c2)C2=CN=NC2NC2=C1C(=O)N(c1cnn(C)c1C)CC2 (some centres undefined) [US20250313563, Compound 952257]",< 100 nM,100 to 1000 nM
"CC1(C)CC(=O)C2=C(C1)NC1=C(CN=N1)C21CCN(S(=O)(=O)c2ccccc2)CC1 [US20250313563, Compound 874530]",< 100 nM and 100 to 1000 nM,< 100 nM and 1000 to 5000 nM
"CC[C@@]1(c2cccc(Br)c2)C2=CN=NC2NC2=C1C(=O)C[C@@H](C(F)(F)F)C2 (some centres undefined) [US20250313563, Compound 826652]",< 100 nM,100 to 1000 nM
"CC1(C)CC(=O)C2=C(C1)NC1=C(CN=N1)C21CCN(S(=O)(=O)c2cnn3ccccc23)CC1 [US20250313563, Compound 947615]",< 100 nM,< 100 nM
"CCC1(c2cccc(C(F)(F)F)c2)C2=CN=NC2NC2=C1C(=O)NCC2C (centres undefined) [US20250313563, Compound 919318]",< 100 nM,100 to 1000 nM

SMILES,IC50 [1],IC50 [2]
"CC[C@]1(c2cccc(C(F)(F)F)c2)C2=CN=NC2NC2=C1C(=O)N(C(C)(C)C)CC2 (some centres undefined) [US20250313563, Compound 945633]",> 5000 nM,> 5000 nM
"CC[C@]1(c2cccc(-c3ccncc3F)c2)C2=C(CC(C)(C)NC2=O)NC2N=NC(F)=C21 (some centres undefined) [US20250313563, Compound 949643]",> 5000 nM,> 5000 nM
"CC1(C)CC(=O)C2=C(C1)NC1=C(CN=N1)C21CCN(S(=O)(=O)c2ccc3c(c2)CCO3)CC1 [US20250313563, Compound 913251]",< 100 nM,< 100 nM
"CC[C@@]1(c2cccc(-c3ccncc3)c2)C2=CN=NC2NC2=C1C(=O)C[C@H](C)C2 (some centres undefined) [US20250313563, Compound 874316]",100 to 1000 nM,1000 to 5000 nM
"CC[C@]1(c2cccc(-c3ccnc(C)c3)c2)C2=CN=NC2NC2=C1C(=O)NC(C)(C)C2 (some centres undefined) [US20250313563, Compound 927325]",100 to 1000 nM,100 to 1000 nM
"CCC1(c2cccc(-c3ccnc(C(C)(C)O)c3)c2)C2=CN=NC2NC2=C1C(=O)CC(C)(C)C2 (centres undefined) [US20250313563, Compound 943536]",< 100 nM,1000 to 5000 nM
"CC[C@]1(c2cccc(C(F)(F)F)c2)C2=CN=NC2NC2=C1C(=O)N(c1cncnc1)CC2 (some centres undefined) [US20250313563, Compound 948379]",100 to 1000 nM,100 to 1000 nM
"O=C1CC2(CCCCC2)CC2=C1C1(CCOCC1)C1=C(N=NC1)N2 [US20250313563, Compound 893307]",< 100 nM,100 to 1000 nM
"CCC1(c2cccc(N3CCCCC3)c2)C2=C(CC(C)(C)NC2=O)NC2N=NC(C)=C21 (centres undefined) [US20250313563, Compound 947674]",< 100 nM,100 to 1000 nM
"CC[C@]1(c2cccc(-c3cn(C)nc3C)c2)C2=CN=NC2NC2=C1C(=O)NC1(CCC1)C2 (some centres undefined) [US20250313563, Compound 950055]",< 100 nM,< 100 nM and 100 to 1000 nM
"CCC1(c2cccc(-c3ccnc(C)c3OC)c2)C2=CN=NC2NC2=C1C(=O)CC(C)(C)C2 (centres undefined) [US20250313563, Compound 945458]",< 100 nM,< 100 nM
"CC[C@@]1(c2cccc(N(C)c3ncccn3)c2)C2=CN=NC2NC2=C1C(=O)NC(C)(C)C2 (some centres undefined) [US20250313563, Compound 947826]",< 100 nM,< 100 nM
"Cn1cc(S(=O)(=O)N2CCC3(CC2)C2=C(N=NC2)NC2=C3C(=O)CC(C)(C)C2)nn1 [US20250313563, Compound 947898]",< 100 nM,100 to 1000 nM
"CC(C)S(=O)(=O)N1CCC2(CC1)C1=C(N=NC1)NC1=C2C(=O)CC(C)(C)[C@@H]1F [US20250313563, Compound 951714]",< 100 nM and 100 to 1000 nM,< 100 nM and 100 to 1000 nM
"C[C@@H]1CCC[C@]2(C1)C1=C(N=NC1)NC1=C2C(=O)CC(C)(C)C1 [US20250313563, Compound 893320]",< 100 nM,< 100 nM
"CC[C@@]1(c2cccc(-c3ccncc3C)c2)C2=CN=NC2NC2=C1C(=O)NC(C)(C)C2 (some centres undefined) [US20250313563, Compound 947574]",< 100 nM,< 100 nM
"CC[C@]1(c2cccc(-c3c(C)nn(C)c3C)c2)C2=C(CC(C)(C)CC2=O)NC2N=NC(C)=C21 (some centres undefined) [US20250313563, Compound 913043]",< 100 nM,< 100 nM and 100 to 1000 nM
"CC1(C)CC(=O)C2=C(C1)NC1=C(CN=N1)C21Cc2ccccc2C1 [US20250313563, Compound 897752]",< 100 nM,100 to 1000 nM
"CCC1(c2cccc(S(=O)(=O)c3ccccc3)c2)C2=CN=NC2NC2=C1C(=O)CC(C)(C)C2 (centres undefined) [US20250313563, Compound 913123]",< 100 nM,< 100 nM and 100 to 1000 nM
"CC[C@]1(c2ccccc2)C2=CN=NC2NC2=C1C(=O)C[C@@]1(CCCOC1)C2 (some centres undefined) [US20250313563, Compound 816879]",100 to 1000 nM,100 to 1000 nM
"CO[C@H]1CC[C@]2(CC1)C1=C(N=NC1)NC1=C2C(=O)CC(C)(C)C1 [US20250313563, Compound 884120]",100 to 1000 nM,100 to 1000 nM
"CCC1(c2ccccc2)C2=C(N=NC2)NC2=C1C(=O)CCC2 (centres undefined) [US20250313563, Compound 789497]",1000 to 5000 nM,> 5000 nM
"Cc1nccc([C@H]2CC[C@]3(CC2)C2=C(N=NC2)NC2=C3C(=O)CC(C)(C)C2)c1C [US20250313563, Compound 950478]",< 100 nM,< 100 nM
